# Laboratory results: BindingDB's records for doi:10.1124/jpet.103.062836 (Bayer Healthcare, 2004)
# Experiments:
# [1] = target: Cannabinoid receptor 1 (Rattus norvegicus, UniProt P20272)
# [2] = target: Cannabinoid receptor 2 (Homo sapiens, UniProt P34972)
# Chain of Cannabinoid receptor 2 (P34972 whole entry): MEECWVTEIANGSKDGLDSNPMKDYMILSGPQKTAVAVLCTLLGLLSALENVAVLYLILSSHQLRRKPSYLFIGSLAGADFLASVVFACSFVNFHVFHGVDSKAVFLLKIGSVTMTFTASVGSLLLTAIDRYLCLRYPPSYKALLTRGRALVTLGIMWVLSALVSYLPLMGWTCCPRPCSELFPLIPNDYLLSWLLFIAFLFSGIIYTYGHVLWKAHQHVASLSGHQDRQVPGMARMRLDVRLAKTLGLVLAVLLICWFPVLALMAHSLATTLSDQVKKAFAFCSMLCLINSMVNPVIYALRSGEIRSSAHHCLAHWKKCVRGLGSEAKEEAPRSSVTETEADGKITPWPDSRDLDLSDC
# Chain of Cannabinoid receptor 1 (P20272 whole entry): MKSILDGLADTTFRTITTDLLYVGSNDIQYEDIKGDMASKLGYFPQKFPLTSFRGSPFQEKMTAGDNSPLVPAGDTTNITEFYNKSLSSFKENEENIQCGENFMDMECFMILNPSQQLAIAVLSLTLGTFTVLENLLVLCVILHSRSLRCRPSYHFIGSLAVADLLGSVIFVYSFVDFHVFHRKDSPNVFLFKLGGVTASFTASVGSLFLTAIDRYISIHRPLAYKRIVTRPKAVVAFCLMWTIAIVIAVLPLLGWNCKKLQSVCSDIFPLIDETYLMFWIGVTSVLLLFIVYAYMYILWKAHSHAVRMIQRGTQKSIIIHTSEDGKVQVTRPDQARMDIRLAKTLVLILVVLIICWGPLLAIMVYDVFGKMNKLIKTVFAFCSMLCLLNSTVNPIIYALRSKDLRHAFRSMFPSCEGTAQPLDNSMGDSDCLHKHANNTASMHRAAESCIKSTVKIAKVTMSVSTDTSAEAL
smiles,measurement,setting,value
N#Cc1c(Oc2cccc(OS(=O)(=O)CCCC(F)(F)F)c2)cccc1C(F)(F)F,Ki,[1],55.4 nM
same,Ki,[2],45.5 nM
